Reference: patent publication US10131658B2, “Anti-alphavbeta1 integrin compounds and methods” (The Regents of the University of California, priority 2013, dated 2018)
pIC50: −log10 of the molar value.

Tests used:
αvβ1 integrin = experiment: Cell Adhesion Assay (integrin-specific adhesion, CHO cells transfected with human αv adhering to fibronectin); type: cell-based; conditions: for pIC50: Cell Adhesion Assay
Procedure: The effects of c8 and c16 on cell adhesion mediated by α5β1, α8β1, αvβ1, αvβ3, αvβ5, αvβ6, and αvβ8 were measured using pairs of cell lines and ligands selected to isolate the effect of each individual integrin. For α5β1 we utilized the colon carcinoma cell line, SW480, plated on 0.3 μg/ml fibronectin, for α8β1, we utilized SW480 cells transfected with human α8 adhering to 1 μg/ml recombinant TGFβ1 LAP [5], for αvβ1 we used Chinese Hamster Ovary Cells (CHO cells) transfected with human αv adhering to 0.3 μg/ml fibronectin [6], for αvβ3 we used SW480 cells transfected with human β3, for αvβ5 we used wild type SW480 cells adhering to 0.1 μg/ml vitronectin. […] Cells were allowed to attach for 30-60 min at 37° C. After incubation, non-adherent cells were removed by discarding the media and spinning the plate top-side down at 500 rpm for 5 minutes. Cells were then fixed and stained with 40 ul of 0.5% Crystal violet, 1% Formaldehyde, 20% Methanol for 30 minutes and lysed with 2% Trition-X. Absorbance was measured at 595 nm in a Microplate reader. For all assays, concentration-response curves were constructed by non-linear regression analysis and IC50 values were calculated using GraphPad Prism software.
αvβ1 integrin inhibition is effective in cell adhesion assay/mouse liver fibrosis model: Inhibitors were tested in cell adhesion assay to test their potency/selectivity. A panel of cell lines and integrin ligands were developed to allow rapid examination of potency and specificity of inhibitors against all 8 integrins that recognize RGD sequences in ligands. A subset of these was used to generate the very encouraging data about 8 shown above. These cell lines were used to calculate IC50 concentrations for each inhibitor synthesized to rapidly generate structure activity information to drive subsequent modification and synthesis. Inhibitors were evaluated for showing better potency/selectivity in CCl4-induced liver fibrosis. A general inhibitor of αv integrins can reverse fibrosis in this model when administered as a continuous subcutaneous infusion (from Alzet pumps) beginning 3 weeks after CCl4 initiation. However, global inhibition of all αv integrins is likely to cause unacceptable side effects. […] As above, pumps will be inserted after 3 weeks of CCl4 treatment. Once we find small molecules that are effective, each will be further tested in the UUO model of renal fibrosis and the bleomycin model of pulmonary fibrosis. Again we will examine therapeutic rather than prophylactic efficacy by beginning treatment in each model after the onset of fibrosis.

[1] = test system: TGFβ activation by cells expressing αvβ1; experiment: TGFβ activation assay (co-culture with PAI1-luciferase TGFβ reporter cells); type: cell-based
Procedure: Test cells were plated at 50K cells/well in 96-well plates together with mink lung epithelial cells expressing firefly luciferase downstream of the TGFβ sensitive portion of the plasminogen activator inhibitor 1 promoter (15K cells/well). Cells were co-cultured for 16 hours and TGFβ activity was calculated by measurement of luminescencein the presence and absence of TGFβ-blocking antibody, 1D11.

Q: `Cc1cnc(NCCCC(=O)Nc2ccc(C[C@H](NC(=O)[C@@H]3CCCN3S(=O)(=O)c3ccccc3)C(=O)O)cc2)c(C)c1` [Compound 210, (S)-3-(4-(4-((3,5-dimethylpyridin-2-yl)amino)butanamido)phenyl)-2-((S)-1-(phenylsulfonyl)pyrrolidine-2-carboxamido)propanoic acid] was tested. Which pIC50 (αvβ1 integrin) did it give?
A: The pIC50 was 6.00 to 8.00.

Q: `NCCCC(=O)Nc1ccc(C[C@H](NC(=O)[C@@H]2CCCN2S(=O)(=O)c2ccccc2)C(=O)O)cc1` [Compound 3, (S)-3-(4-(4-aminobutanamido)phenyl)-2-((S)-1-(phenylsulfonyl)pyrrolidine-2-carboxamido)propanoic acid] was tested. Which pIC50 (αvβ1 integrin) did it give?
A: The pIC50 was 6.00 to 8.00.

Q: How did the pIC50 (αvβ1 integrin) turn out when `O=C(CCCCNC1=NCCN1)Nc1ccc(C[C@H](NC(=O)[C@@H]2CCCN2S(=O)(=O)c2ccccc2)C(=O)O)cc1` [Compound 11, (S)-3-(4-(5-((4,5-dihydro-1H-imidazol-2-yl)amino)pentanamido)phenyl)-2-((S)-1-(phenylsulfonyl)pyrrolidine-2-carboxamido)propanoic acid] was run?
A: The pIC50 was 6.00 to 8.00.

Q: `O=C(CCCNc1ccccn1)Nc1ccc(C[C@H](NC(=O)[C@@H]2CCCCN2S(=O)(=O)c2ccccc2)C(=O)O)cc1` [Compound 213] was tested. Which pIC50 (αvβ1 integrin) did it give?
A: Its pIC50 is greater than 8.00.

Q: How did the pIC50 (αvβ1 integrin) turn out when `N=C(N)NCCCC(=O)Nc1ccc(C[C@H](NC(=O)[C@@H]2CCCCN2S(=O)(=O)c2ccccc2)C(=O)O)cc1` [Compound 212] was run?
A: Its pIC50 is 6.00 to 8.00.

Q: With `N=C(N)NCCOCC(=O)Nc1ccc(C[C@H](NC(=O)[C@@H]2CCCN2S(=O)(=O)c2ccccc2)C(=O)O)cc1` [Compound 204, (S)-3-(4-(2-(2-guanidinoethoxy)acetamido)phenyl)-2-((S)-1-(phenylsulfonyl)pyrrolidine-2-carboxamido)propanoic acid] as the compound, how does the pIC50 (αvβ1 integrin) read?
A: The pIC50 was 6.00 to 8.00.

Q: How did the pIC50 (αvβ1 integrin) turn out when `Cc1cccc(NCCCC(=O)Nc2ccc(C[C@H](NC(=O)[C@@H]3CCCN3S(=O)(=O)c3ccccc3)C(=O)O)cc2)n1` [Compound 207, (S)-3-(4-(4-((6-methylpyridin-2-yl)amino)butanamido)phenyl)-2-((S)-1-(phenylsulfonyl)pyrrolidine-2-carboxamido)propanoic acid] was run?
A: Its pIC50 is 6.00 to 8.00.

Q: With `NCCC(=O)Nc1ccc(C[C@H](NC(=O)[C@@H]2CCCN2S(=O)(=O)c2ccccc2)C(=O)O)cc1` [Compound 2, (S)-3-(4-(3-aminopropanamido)phenyl)-2-((S)-1-(phenylsulfonyl)pyrrolidine-2-carboxamido)propanoic acid] as the compound, how does the pIC50 (αvβ1 integrin) read?
A: The pIC50 was 6.00 to 8.00.

Q: `O=C(CCCNC1=NCCN1)Nc1ccc(C[C@H](NC(=O)[C@@H]2CCCN2S(=O)(=O)c2ccccc2)C(=O)O)cc1` [Compound 87, (S)-3-(4-(4-((4,5-dihydro-1H-imidazol-2-yl)amino)butanamido)phenyl)-2-((S)-1-(phenylsulfonyl)pyrrolidine-2-carboxamido)propanoic acid] was tested. Which pIC50 (αvβ1 integrin) did it give?
A: Its pIC50 is greater than 8.00.

Q: `NCCCCCC(=O)Nc1ccc(C[C@H](NC(=O)[C@@H]2CCCN2S(=O)(=O)c2ccccc2)C(=O)O)cc1` [Compound 9, (S)-3-(4-(6-aminohexanamido)phenyl)-2-((S)-1-(phenylsulfonyl)pyrrolidine-2-carboxamido)propanoic acid] was tested. Which pIC50 (αvβ1 integrin) did it give?
A: Its pIC50 is 5.00 to 6.00.

Q: With `CNCCCCCC(=O)N[C@H](CCCNC(=N)N)C(=O)Nc1ccc(C[C@H](NC(=O)C2CCCN2S(=O)(=O)c2ccccc2)C(=O)O)cc1` (stereo partly drawn) [Compound 198] as the compound, how does the pIC50 (αvβ1 integrin) read?
A: Its pIC50 is 6.00 to 8.00.

Q: How did the pIC50 (αvβ1 integrin) turn out when `N=C(N)NCC(=O)Nc1ccc(C[C@H](NC(=O)[C@@H]2CCCN2S(=O)(=O)c2ccccc2)C(=O)O)cc1` [Compound 4, (S)-3-(4-(2-guanidinoacetamido)phenyl)-2-((S)-1-(phenylsulfonyl)pyrrolidine-2-carboxamido)propanoic acid] was run?
A: The pIC50 was 6.00 to 8.00.

Q: With `N=C(N)Nc1cccc(CC(=O)Nc2ccc(C[C@H](NC(=O)[C@@H]3CCCN3S(=O)(=O)c3ccccc3)C(=O)O)cc2)c1` [Compound 205, (S)-3-(4-(2-(3-guanidinophenyl)acetamido)phenyl)-2-((S)-1-(phenylsulfonyl)pyrrolidine-2-carboxamido)propanoic acid] as the compound, how does the pIC50 (αvβ1 integrin) read?
A: Its pIC50 is 6.00 to 8.00.

Q: `NCCCC(=O)Nc1ccc(C[C@H](NC(=O)[C@@H]2CCCN2S(=O)(=O)c2ccccc2)C(=O)O)cc1` [Compound 6, (S)-3-(4-(4-aminobutanamido)phenyl)-2-((S)-1-(phenylsulfonyl)pyrrolidine-2-carboxamido)propanoic acid] was tested. Which pIC50 (αvβ1 integrin) did it give?
A: The pIC50 was greater than 8.00.

Q: `CN(C)c1cccc2c(S(=O)(=O)N3CCCC3C(=O)N[C@@H](Cc3ccc(NC(=O)CCCCNC(=N)N)cc3)C(=O)O)cccc12` (stereo partly drawn) [Compound 215] was tested. Which pIC50 (αvβ1 integrin) did it give?
A: The pIC50 was greater than 8.00.

Q: `CNCCCCCC(=O)N[C@H](CCCNC(=N)N)C(=O)Nc1ccc(C[C@H](NC(=O)[C@@H]2CCCN2S(=O)(=O)c2ccccc2)C(=O)O)cc1` (stereo in doubt) [Compound 199] was tested. Which pIC50 (αvβ1 integrin) did it give?
A: The pIC50 was greater than 8.00.

Q: How did the pIC50 (αvβ1 integrin) turn out when `N=C(N)NC(=O)CCC(=O)Nc1ccc(C[C@H](NC(=O)[C@@H]2CCCN2S(=O)(=O)c2ccccc2)C(=O)O)cc1` [Compound 93] was run?
A: Its pIC50 is 6.00 to 8.00.

Q: How did the pIC50 (αvβ1 integrin) turn out when `Cc1ccc(NCCCC(=O)Nc2ccc(C[C@H](NC(=O)[C@@H]3CCCN3S(=O)(=O)c3ccccc3)C(=O)O)cc2)nc1` [Compound 206, (S)-3-(4-(4-((5-methylpyridin-2-yl)amino)butanamido)phenyl)-2-((S)-1-(phenylsulfonyl)pyrrolidine-2-carboxamido)propanoic acid] was run?
A: The pIC50 was 6.00 to 8.00.

Q: How did the pIC50 (αvβ1 integrin) turn out when `N=C(N)Nc1cccc(C(=O)Nc2ccc(C[C@H](NC(=O)[C@@H]3CCCN3S(=O)(=O)c3ccccc3)C(=O)O)cc2)c1` [Compound 201, (S)-3-(4-(3-guanidinobenzamido)phenyl)-2-((S)-1-(phenylsulfonyl)pyrrolidine-2-carboxamido)propanoic acid] was run?
A: The pIC50 was greater than 8.00.

Q: How did the pIC50 (αvβ1 integrin) turn out when `N=C(N)NCCCCCC(=O)Nc1ccc(C[C@H](NC(=O)[C@@H]2CCCN2S(=O)(=O)c2ccccc2)C(=O)O)cc1` [Compound 10, (S)-3-(4-(6-guanidinohexanamido)phenyl)-2-((S)-1-(phenylsulfonyl)pyrrolidine-2-carboxamido)propanoic acid] was run?
A: The pIC50 was 6.00 to 8.00.

Q: `N=C(N)NCCC(=O)Nc1ccc(C[C@H](NC(=O)[C@@H]2CCCN2S(=O)(=O)c2ccccc2)C(=O)O)cc1` [Compound 5, (S)-3-(4-(3-guanidinopropanamido)phenyl)-2-((S)-1-(phenylsulfonyl)pyrrolidine-2-carboxamido)propanoic acid] was tested. Which pIC50 (αvβ1 integrin) did it give?
A: Its pIC50 is greater than 8.00.

Q: `NCC(=O)Nc1ccc(C[C@H](NC(=O)[C@@H]2CCCN2S(=O)(=O)c2ccccc2)C(=O)O)cc1` [Compound 1, (S)-3-(4-(2-aminoacetamido)phenyl)-2-((S)-1-(phenylsulfonyl)pyrrolidine-2-carboxamido)propanoic acid] was tested. Which pIC50 (αvβ1 integrin) did it give?
A: The pIC50 was 5.00 to 6.00.

Q: How did the pIC50 (αvβ1 integrin) turn out when `Cc1cc(C)cc(S(=O)(=O)N2CCC[C@H]2C(=O)N[C@@H](Cc2ccc(NC(=O)CCCNC(=N)N)cc2)C(=O)O)c1` [Compound 214] was run?
A: The pIC50 was 6.00 to 8.00.

Q: How did the pIC50 (αvβ1 integrin) turn out when `O=C(CCCCNC1=NCCCN1)Nc1ccc(C[C@H](NC(=O)[C@@H]2CCCN2S(=O)(=O)c2ccccc2)C(=O)O)cc1` [Compound 60] was run?
A: The pIC50 was 6.00 to 8.00.

Q: With `NCCCCC(=O)Nc1ccc(C[C@H](NC(=O)[C@@H]2CCCN2S(=O)(=O)c2ccccc2)C(=O)O)cc1` [Compound 7, (S)-3-(4-(5-aminopentanamido)phenyl)-2-((S)-1-(phenylsulfonyl)pyrrolidine-2-carboxamido)propanoic acid] as the compound, how does the pIC50 (αvβ1 integrin) read?
A: Its pIC50 is 5.00 to 6.00.

Q: With `N=C(N)Nc1ccc(C(=O)Nc2ccc(C[C@H](NC(=O)[C@@H]3CCCN3S(=O)(=O)c3ccccc3)C(=O)O)cc2)cc1` [Compound 200, (S)-3-(4-(4-guanidinobenzamido)phenyl)-2-((S)-1-(phenylsulfonyl)pyrrolidine-2-carboxamido)propanoic acid] as the compound, how does the pIC50 (αvβ1 integrin) read?
A: The pIC50 was 6.00 to 8.00.

Q: `O=C(CCCc1ccc2c(n1)NCCC2)Nc1ccc(C[C@H](NC(=O)[C@@H]2CCCN2S(=O)(=O)c2ccccc2)C(=O)O)cc1` [Compound 63] was tested. Which pIC50 (αvβ1 integrin) did it give?
A: Its pIC50 is 6.00 to 8.00.

Q: With `N=C(N)NCCCCC(=O)Nc1ccc(C[C@H](NC(=O)[C@@H]2CCCN2S(=O)(=O)c2ccccc2)C(=O)O)cc1` [Compound 8, (S)-3-(4-(5-guanidinopentanamido)phenyl)-2-((S)-1-(phenylsulfonyl)pyrrolidine-2-carboxamido)propanoic acid] as the compound, how does the “TGFβ activation by cultured liver myofibroblasts” value [1] read?
A: Its value is “inhibits TGFβ activation”.

Q: And the pIC50 (αvβ1 integrin)?
A: The pIC50 was greater than 8.00.

Q: And the “concentration that inhibits cell adhesion by αvβ1 integrin” value (αvβ1 integrin; preliminary studies, highly selective manner)?
A: Its value is less than 100 pM.
